Test results from US20060171988A1, “Method of treatment using foams as artificial lymph nodes” (priority 2005, published 2006).
Entries after “also recorded” stand apart in the source; their conditions may differ.

Assays:
EL-4 cells = experiment: 51Cr release assay (CTL activity) with T cells from immunized mice, EL-4 targets; type: in vivo, mouse
Protocol: Immunization: On day 9 after surgery, wounds had generally healed and healthy mice were used for immunization with 30 μg peptide per mouse. Depending on the experiment, CpG deoxyoligonucleotide 1668 (5 -100 pmole/mouse), mouse GM-CSF (10^3 units/mouse) and Titermax classic were used as adjuvants. Generally, injection volume was adjusted to 200 μl per mouse with sterile PBS. When applying Titermax classic, all other injection components were mixed and then added in small portions to an equal volume of Titermax classic. After each addition, the vial was rigorously mixed to obtain a white, semi-fluid water-in-oil suspension. […]
T-cell culture and ^51Cr release assay: On day 9 after immunization, mice were sacrificed and 2*10^7 splenocytes were stimulated in vitro for 5 days using 10^7 irradiated (30 Gy) splenocytes from untreated C57BL/6 mice as feeder cells and 5 ng/ml peptide. Cytotoxic T lymphocyte (CTL) activity was measured in a standard ^51Cr release assay (Brunner et al., 1968). Briefly, stimulated cells were harvested, counted and plated out in a series of […] in a round-bottom 96-well plate. […] After intense washing with cell culture medium, 10^4 of these cells were added to each well of the 96-well plate as targets. ^51Cr release was measured after 4 h incubation at 37° C./5% (v/v) CO2.

[1] = system: ovalbumin-transfected E.G7 mouse tumor cells; experiment: 51Cr release assay (CTL activity) with T cells from immunized mice, E.G7 targets; type: in vivo
Protocol: Immunization: On day 9 after surgery, wounds had generally healed and healthy mice were used for immunization with 30 μg peptide per mouse. Depending on the experiment, CpG deoxyoligonucleotide 1668 (5 -100 pmole/mouse), mouse GM-CSF (10^3 units/mouse) and Titermax classic were used as adjuvants. Generally, injection volume was adjusted to 200 μl per mouse with sterile PBS. When applying Titermax classic, all other injection components were mixed and then added in small portions to an equal volume of Titermax classic. After each addition, the vial was rigorously mixed to obtain a white, semi-fluid water-in-oil suspension. Injection was either performed subcutaneously into the nape of the neck, the base of tail and the footpad, using a volume ratio of 3:1:1, respectively, or directly into the centre of the right foam implantate.
T-cell culture and ^51Cr release assay: On day 9 after immunization, mice were sacrificed and 2*10^7 splenocytes were stimulated in vitro for 5 days using 10^7 irradiated (30 Gy) splenocytes from untreated C57BL/6 mice as feeder cells and 5 ng/ml peptide. Cytotoxic T lymphocyte (CTL) activity was measured in a standard ^51Cr release assay (Brunner et al., 1968). Briefly, stimulated cells were harvested, counted and plated out in a series of […] in a round-bottom 96-well plate. 10^6 EL-4 cells (C57BL/6-derived T cell lymphoma; ATCC no. TIB-39) were loaded with 50 pmole peptide and [^51Cr] Na2CrO4-labeled at 37° C. for 30 min. After intense washing with cell culture medium, 10^4 of these cells were added to each well of the 96-well plate as targets. ^51Cr release was measured after 4 h incubation at 37° C./5% (v/v) CO2.

[2] = s.c. injection into the nape of the neck, peptide alone, T cells from spleen or lymph nodes of immunized C57BL/6 mice

| Sequence | maximum lysis above unspecific background (EL-4 cells; peptide injected into s.c. implanted PVA foams, T cells from axillary and cervical lymph nodes, independent second experiment) [%] | recognition of untransfected EL-4 target cells by T cells (EL-4 cells; [2]) | maximum lysis above unspecific background ([1]; peptide injected into s.c. implanted PVA foams, T cells from spleen) | lysis of ovalbumin-transfected E.G7 cells by T cells ([1]; peptide injected into s.c. implanted PVA foams, T cells from spleen or lymph node) | immune response / recognition of E.G7 target cells by T cells [1, 2] |
| --- | --- | --- | --- | --- | --- |
| ASNENMETM (peptide ASNENMETM derived from influenza nucleoprotein (amino acid 366-374)) [peptide derived from influenza nucleoprotein (amino acid 366-374)] | 37 |  |  |  |  |
| SIINFEKL (Ovalbumin-derived SIINFEKL peptide (amino acid 257-264)) [peptide derived from chicken ovalbumin (amino acid 257-264), model ligand of mouse MHC class I allele H2-Kb] |  | nor untransfected H2-b positive EL-4 mouse tumor cells were recognized | approximately 45% | able to lyse | Neither ovalbumin-transfected E.G7 mouse tumor cells of the H2-b haplotype, nor untransfected H2-b positive EL-4 mouse tumor cells are recognized; also recorded: did not lead to detectable immune responses |
